# In patent EP0751768B1, “ANTI-VIRAL AND ANTI-CANCER AGENT” (Radopath Pharmaceuticals International Limited, priority 1994, dated 1995):
# Several values for one entry are separate records, joined by “and”; a condition that tells them apart may be missing. Equal values may be shown once. Read-outs that look alike come from different tables or passages of the source.
# Experiments:
# HIV-1RF = assay: microbe, parasite or virus in culture; type: cell-based, human immunodeficiency virus HIV-1RF; conditions: read-out: IC50
# HIV-I IIIB = assay: Acute infection assay, HIV core antigen ELISA (HIV-I IIIB); type: cell-based; conditions: for IC50: Against HIV-I IIIB
# in vitro = conditions: CC50 (Toxicity), listed under Against HIV-I IIIB; single determinations
# [1] = system: M5076-reticulum cell sarcoma; assay: Anti-tumour activity against M5076 solid tumour (tumour weight inhibition); type: in vivo, murine
# Method: The in vivo anti-tumour responses of the compound according to the invention were assessed against the ascitic tumours, MAC15A murine colon adenocarcinoma and various solid tumour models. The MAC15A ascites tumour cells were transplanted into male NMR1 mice by ip innoculation at a cell density of 1 x 10^5 cells in 200µl buffer (Table I). The solid tumour models included the MAC13 and MAC16 murine colon adenocarcinomas, the B16 F1 murine melanoma and the M5076 reticulum cell sarcoma.
# Treatment commenced 3 days after ip transplant or, in the case of solid tumours such as MAC13 and MAC16, treatment commenced when average tumour volumes reached 40mm^3.
# The animals were located in both cases into groups of 5 to 8 animals.
# The animals were sacrificed after 12 days or when tumours ulcerated, tumour volume exceeded 1000mm^3 or loss of body weight exceeded 50%.
# Except where otherwise stated, the compound used was dissolved in DMSO and diluted in sterile distilled water, at appropriate concentrations before administration in a solvent volume of 200µl. Anti-tumour responses were obtained by comparing the median survival times or tumour growth inhibition against solvent controls.
# % Tumour Weight Inhibition:-
# [2] = control compounds in infected cells
compound,measurement,setting,value
CC(C)(C)NC(=O)[C@@H]1C[C@@H]2CCCC[C@@H]2CN1C[C@@H](O)[C@H](Cc1ccccc1)NC(=O)[C@H](CC(N)=O)NC(=O)c1ccc2ccccc2n1 [compound 8959],IC50,HIV-1RF; [2],0.001 µM
Cc1cn([C@H]2C[C@H](N=[N+]=[N-])[C@@H](CO)O2)c(=O)[nH]c1=O [AZT],IC50,HIV-1RF,0.01 µM and 0.02 µM
"O=C(O)c1ccc(Cl)c([N+](=O)[O-])c1 [C9, 4-chloro-3-nitrobenzoic acid]",CC50,uninfected cells,> 200 µM
NC(=O)c1cc([N+](=O)[O-])c(Cl)c([N+](=O)[O-])c1Cl [C2],IC50,"HIV-I IIIB; single determinations, read-out: IC50 (Antiviral)",2 µM
same,CC50,"uninfected cells; read-out: CC50 (Toxicity), listed under Against HIV-I IIIB, single determinations",70 µM
"O=C(O)c1cc([N+](=O)[O-])cc([N+](=O)[O-])c1Cl [C7, 2-chloro-3,5-dinitrobenzoic acid]",CC50 at 72 h,in vitro,35 µM
same,IC50,"HIV-I IIIB; average of the lines above, read-out: IC50 (Antiviral), Average",22 µM
same,CC50,"uninfected cells; read-out: CC50 (Toxicity), Average, listed under Against HIV-I IIIB, average of the lines above",> 175 µM
"COC(=O)c1cc([N+](=O)[O-])cc([N+](=O)[O-])c1Cl [C8, 2-chloro-3,5-dinitrobenzoic acid methyl ester]",SI (Selectivity Index),HIV-I IIIB,5
same,CC50,uninfected cells,60 µM
Nc1ccn([C@H]2CC[C@@H](CO)O2)c(=O)n1 [ddC],IC50,HIV-1RF; [2],0.2 µM
NC(=O)c1cc([N+](=O)[O-])c(Cl)c([N+](=O)[O-])c1Cl [the amide],anti-tumour activity (in words),[1],without anti-tumour activity
same,increase in toxicity,"[1]; relative to 2,4-dichloro-3,5-dinitrobenzoic acid",10 fold
"O=C(O)c1ccc([N+](=O)[O-])cc1Cl [C10, 2-chloro-4-nitrobenzoic acid]",CC50,uninfected cells,> 200 µM
